What follows are compounds tested against T1, Histone acetyltransferase KAT6A [507-778] (Homo sapiens, UniProt Q92794) (assay: Inhibition of KAT6A Enzyme Activity Assay).
T1 construct: 507-778
Method: 1× experimental buffer (modified Tris buffer) was prepared, and the compounds were dissolved with 100% DMSO to form 10 mM reservoir solution and diluted according to a certain concentration gradient. The compounds were transferred to a 384-well plate using an automatic sampler Echo, and the final concentration of DMSO was 1%. 1× KAT6A enzyme (catalytic domain) solution was prepared. A mixed solution of [3H]-acetyl-CoA (PERKIN ELMER, Cat. No. NET290250UC) and the substrate peptide H3 (1-21) was prepared. 10 μL of the enzyme solution was transferred to the 384-well plate and incubated at room temperature for 15 minutes. 10 μL of the mixed solution of [3H]-acetyl-CoA and the substrate peptide H3 (1-21) were added to the plate to initiate the reaction. The plate was incubated at room temperature for 1 hour. 10 μL of the stop solution was added to terminate the reaction. 25 μL of the reaction solution was transferred to a Flashplate (Perkin Elmer, Cat. No. SMP410A001PK) and incubated at room temperature for 1 hour. The plate was read using Microbeta. The inhibition rate of the compounds was calculated using the formula of Excel: inhibition %=(Max-Signal)/(Max−Min)*100%. Where max is the value of the DMSO control, min is the value of the non-enzymatic control, and signal is the value of the well where the compound was tested.

T1 sequence (Q92794 507-778): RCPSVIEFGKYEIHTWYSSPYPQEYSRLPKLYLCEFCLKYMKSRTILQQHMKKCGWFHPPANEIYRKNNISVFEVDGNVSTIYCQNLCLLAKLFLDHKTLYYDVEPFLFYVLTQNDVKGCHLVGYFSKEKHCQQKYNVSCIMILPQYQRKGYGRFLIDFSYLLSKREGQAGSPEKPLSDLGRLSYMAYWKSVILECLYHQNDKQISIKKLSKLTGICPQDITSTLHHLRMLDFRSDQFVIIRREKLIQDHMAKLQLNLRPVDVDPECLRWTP

SMILES	IC50
COc1ccc(N2CCOCC2)cc1S(=O)(=O)Nc1noc2cc(Cn3cccn3)cc(OC)c12 [US20240400545, Compound 6]	< 100 nM
COc1cc(C#Cc2cccnc2)cc(O)c1S(=O)(=O)Nc1noc2cc(Cn3cccn3)cc(OC)c12 [US20240400545, Compound 19']	< 10 nM
C#Cc1ccc(OC)c(S(=O)(=O)Nc2noc3cc(Cn4cccn4)cc(OC)c23)c1 [US20240400545, Compound 3]	< 20 nM
COc1cc(C#CC2CN(C)C2)ccc1S(=O)(=O)Nc1noc2cc(Cn3cccn3)cc(OC)c12 [US20240400545, Compound 24]	< 20 nM
CC#Cc1cc(OC)c(S(=O)(=O)Nc2noc3cc(Cn4cccn4)cc(OC)c23)c(OC)c1 [US20240400545, Compound 9]	< 10 nM
COc1cc(C#CC2CN(C)C2)cc(OC)c1S(=O)(=O)Nc1noc2cc(Cn3cccn3)cc(OC)c12 [US20240400545, Compound 22]	< 20 nM
CC#Cc1ccc(OC)c(S(=O)(=O)Nc2noc3cc(Cn4cccn4)cc(OC)c23)c1 [US20240400545, Compound 13]	< 20 nM
COc1cc(C#CC2CC2)cc(OC)c1S(=O)(=O)Nc1noc2cc(Cn3cccn3)cc(OC)c12 [US20240400545, Compound 10]	< 5 nM
COc1cc(C#CC2CNC2)cc(OC)c1S(=O)(=O)Nc1noc2cc(Cn3cccn3)cc(OC)c12 [US20240400545, Compound 21]	< 10 nM
COc1cc(C#CC2CN(C(=O)OC(C)(C)C)C2)cc(OC)c1S(=O)(=O)Nc1noc2cc(Cn3cccn3)cc(OC)c12 [US20240400545, Compound 20]	< 5 nM
C#Cc1ccc(S(=O)(=O)Nc2noc3cc(Cn4cccn4)cc(OC)c23)c(OC)c1 [US20240400545, Compound 11]	< 10 nM
COc1cc(C#CC2CC(F)(F)C2)cc(OC)c1S(=O)(=O)Nc1noc2cc(Cn3cccn3)cc(OC)c12 [US20240400545, Compound 15]	< 5 nM
CC#Cc1ccc(S(=O)(=O)Nc2noc3cc(Cn4cccn4)cc(OC)c23)c(OC)c1 [US20240400545, Compound 16]	< 10 nM
CC#Cc1cccc(OC)c1S(=O)(=O)Nc1noc2cc(Cn3cccn3)cc(OC)c12 [US20240400545, Compound 23]	< 20 nM
COc1cc(C#Cc2cccnc2)cc(OC)c1S(=O)(=O)Nc1noc2cc(Cn3cccn3)cc(OC)c12 [US20240400545, Compound 19]	< 5 nM
COc1ccc(C#CC2CC2)cc1S(=O)(=O)Nc1noc2cc(Cn3cccn3)cc(OC)c12 [US20240400545, Compound 7]	< 10 nM
COc1ccc(N2CCN(C)CC2)cc1S(=O)(=O)Nc1noc2cc(Cn3cccn3)cc(OC)c12 [US20240400545, Compound 5]	< 200 nM
COc1cc(C#CC2CC2)ccc1S(=O)(=O)Nc1noc2cc(Cn3cccn3)cc(OC)c12 [US20240400545, Compound 12]	< 10 nM
COc1ccc(C#CC2CC2)cc1S(=O)(=O)NC(=O)c1cc2ccc(N(C)C)cc2o1 [US20240400545, Compound 8]	< 1000 nM
